Reference: patent US20250154198A1, “PEPTIDE INHIBITORS OF INTERLEUKIN-23 RECEPTOR” (Zealand Pharma A/S, priority 2021, published 2025)
Each block holds one molecule with its values, some of them ahead of it. *1 amine or outer side, *2 acyl side, *3 side chain or, on linkers, in order; H or OH if unused. Where a SMILES comes first, the peptide text is derived from it. Bridges are numbered along the chain shown (N, C = ends). [ ]: non-standard residue; d: D form. Pipz(1-CH2CO,4-CH2CH2NH) = O=C(CN1CCN(CCN[*:1])CC1)[*:2]; NHCH2(1,3-C6H4)CH2CO = O=C(Cc1cccc(CN[*:1])c1)[*:2]; dTrp(6-F) = N[C@H](Cc1c[nH]c2cc(F)ccc12)C(=O)O; αMeAla(3-pyridyl) = C[C@](N)(Cc1cccnc1)C(=O)O; Trp(1-Me) = Cn1cc(C[C@H](N)C(=O)O)c2ccccc21; Phe(3,4-Me2) = Cc1ccc(C[C@H](N)C(=O)O)cc1C; Phe(4-Me) = Cc1ccc(C[C@H](N)C(=O)O)cc1; 2Nal = N[C@@H](Cc1ccc2ccccc2c1)C(=O)O; AEF = NCCOc1ccc(C[C@H](N)C(=O)O)cc1; NMeR = CN[C@@H](CCCNC(=N)N)C(=O)O; X1 = O=C(Cc1ccc(CN[*:1])cc1)[*:2]; αMeL = CC(C)C[C@](C)(N)C(=O)O; CH2COCH2 = O=C(C[*:1])C[*:2]; αMeV = CC(C)[C@](C)(N)C(=O)O; 3Amb = NCc1cccc(C(=O)O)c1; Dab = NCC[C@H](N)C(=O)O; Ahx = NCCCCCC(=O)O

Tests used:
[1] = Peptide stability in simulated intestinal fluid (SIF); format: in vitro ADME; conditions: Table 3-2, porcine pancreatin, pH 6.8, 37° C., 10 μM; for remaining at 1 h, 10 μM / remaining at 4 h, 10 μM: pig, simulated intestinal fluid (SIF) with porcine pancreatin; for remaining at 1 h, 10 μM: read-out: SIF (% remaining 1 h); for remaining at 4 h, 10 μM: read-out: SIF (% remaining 4 h)
Experimental: Determination of Peptide Stability in Simulated Gastric Fluid (SGF) and Simulated Intestinal Fluid (SIF)
SGF was prepared by dissolving sodium chloride (0.2 g) in 50 mL of water. A volume of 0.7 mL of 10 M HCl was added to adjust the pH of the solution to 1.2 and the volume made up to 100 mL with water. […] SIF was prepared by dissolving monobasic potassium phosphate (0.68 g) in 50 mL of water and adjusting the pH to 6.8 with 1 M NaOH. The volume was subsequently made up to 100 mL with water. 200 mg porcine pancreatin (P1625, Sigma Aldrich) was gently dissolved into 20 mL preheated (37° C.) solution (10 g/L) immediately prior to the incubation.
The incubation was performed at 37° C. with gentle shaking. […] After the last timepoint, the sampling plate was mixed for 10 min on a shaking table and centrifuged 10 min at 2200 g. 70 μL resulting supernatant was diluted with 150 μL water, mixed and centrifugated before analysis by liquid chromatography high resolution mass spectrometry. […] Percent remaining at each timepoint was calculated relative to timepoint zero based on absolute peak areas.

human IL-23R = biological target: T1, human IL-23R (Homo sapiens, UniProt Q5VWK5); test: Binding assay (NanoBRET displacement of fluorophore-labelled reference compound) for estimating binding affinity to human IL-23R; conditions: Table 3-1; read-out: Ki hIL-23R
T1 construct: UniProtKB—Q5VWK5, amino acids 22-629; secretion signal of the plasmid (Promega N1371); expressed in transfected cells
T1 sequence (Q5VWK5 22-629): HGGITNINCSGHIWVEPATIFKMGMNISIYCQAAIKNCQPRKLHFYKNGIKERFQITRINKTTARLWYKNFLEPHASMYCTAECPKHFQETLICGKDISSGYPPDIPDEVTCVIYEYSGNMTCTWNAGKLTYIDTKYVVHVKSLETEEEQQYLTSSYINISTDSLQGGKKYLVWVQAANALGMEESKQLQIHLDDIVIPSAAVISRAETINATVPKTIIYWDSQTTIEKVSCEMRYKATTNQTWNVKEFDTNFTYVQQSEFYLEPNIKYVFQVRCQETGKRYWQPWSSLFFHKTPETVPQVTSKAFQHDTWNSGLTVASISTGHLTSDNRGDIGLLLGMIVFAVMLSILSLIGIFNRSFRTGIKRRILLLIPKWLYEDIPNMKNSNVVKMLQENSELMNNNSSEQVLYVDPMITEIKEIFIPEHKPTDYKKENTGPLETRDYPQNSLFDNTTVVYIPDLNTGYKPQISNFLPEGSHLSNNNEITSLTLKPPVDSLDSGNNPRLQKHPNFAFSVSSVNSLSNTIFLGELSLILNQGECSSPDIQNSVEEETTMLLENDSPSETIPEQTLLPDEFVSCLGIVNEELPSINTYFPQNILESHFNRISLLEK

Compound: CC(C)C[C@]1(C)NC(=O)[C@H](Cc2ccc3ccccc3c2)NC(=O)[C@H](Cc2ccc(OCCN)cc2)NC(=O)[C@@H]2CSCC(=O)CSC[C@H](NC(=O)[C@H](CO)NC(=O)CN3CCN(CCNC(=O)CC[C@@H](C(=O)N[C@H](CCCNC(=N)N)C(N)=O)NC1=O)CC3)C(=O)N[C@@H](Cc1c[nH]c3ccccc13)C(=O)N[C@@H](CCC(N)=O)C(=O)N2 [Compound 90, [(4-(2-Aminoethyl)-piperazine-1-yl)-acetyl](1c)*SC(2a)WQC(2a)[Y(2-aminoethoxy)][2-Nal][2-Me-Leu]E(1c)[{d}R]-[NH2]] ([Pipz(1-CH2CO,4-CH2CH2NH)]SCWQC[AEF][2Nal][αMeL]E[dR]-NH2; linker 3-6 via CH2COCH2; lactam N-10)
remaining at 4 h, 10 μM [1]: 67%
Ki (human IL-23R): 0.706 nM

Compound: CC(C)C[C@]1(C)NC(=O)[C@H](Cc2ccc3ccccc3c2)NC(=O)[C@H](Cc2ccc(OCCN)cc2)NC(=O)[C@@H]2CSCC(=O)CSC[C@H](NC(=O)[C@H](CO)NC(=O)c3cccc(c3)CNC(=O)CC[C@@H](C(=O)N(C)[C@@H](CCCNC(=N)N)C(N)=O)NC1=O)C(=O)N[C@@H](Cc1c[nH]c3ccccc13)C(=O)N[C@@H](CCC(N)=O)C(=O)N2 [Compound 43, [(3-Aminomethyl)benzoyl](1c)*SC(2a)WQC(2a)[Y(2-aminoethoxy)][2-Nal][2-Me-Leu]E(1c)[N-Me-Arg]-[NH2]] ([3Amb]SCWQC[AEF][2Nal][αMeL]E[NMeR]-NH2; linker 3-6 via CH2COCH2; lactam N-10)
remaining at 4 h, 10 μM [1]: 33%

Compound: CC[C@H](C)[C@@H]1NC(=O)Cc2ccc(cc2)CNC(=O)CC[C@@H](C(=O)N[C@@H](CCN)C(=O)N[C@@](C)(Cc2cccnc2)C(N)=O)NC(=O)[C@](C)(C(C)C)NC(=O)[C@H](Cc2ccc(C)c(C)c2)NC(=O)[C@H](Cc2ccc(OC)cc2)NC(=O)[C@@H]2CCNC(=O)CC[C@H](NC1=O)C(=O)N[C@@H](Cc1c[nH]c3ccccc13)C(=O)N[C@@H](CCC(N)=O)C(=O)N2 [Compound 166, [4-Aminomethyl-phenylacetyl](1c)*IE(2c)WQ[Dab](2c)[Y(Me)][F(3,4-Me)][2-Me-Val]E(1c)[Dab][2-Me-3-(3-Pyridyl)-Ala]-[NH2]] ([X1]IEWQ[Dab]Y(Me)[Phe(3,4-Me2)][αMeV]E[Dab][αMeAla(3-pyridyl)]-NH2; lactam 3-6, N-10)
remaining at 4 h, 10 μM [1]: 86%

Compound: CC(C)C[C@]1(C)NC(=O)[C@H](Cc2ccc3ccccc3c2)NC(=O)[C@H](Cc2ccc(OCCN)cc2)NC(=O)[C@@H]2CSCC(=O)CSC[C@H](NC(=O)[C@H](CO)NC(=O)Cc3cccc(c3)CNC(=O)CC[C@@H](C(=O)N[C@H](CCCNC(=N)N)C(N)=O)NC1=O)C(=O)N[C@@H](Cc1c[nH]c3ccccc13)C(=O)N[C@@H](CCC(N)=O)C(=O)N2 [Compound 92, [3-Aminomethyl-phenylacetyl](1c)*SC(2a)WQC(2a)[Y(2-aminoethoxy)][2-Nal][2-Me-Leu]E(1c)[{d}R]-[NH2]] ([NHCH2(1,3-C6H4)CH2CO]SCWQC[AEF][2Nal][αMeL]E[dR]-NH2; linker 3-6 via CH2COCH2; lactam N-10)
remaining at 4 h, 10 μM [1]: 102%

Compound: CSCC[C@H](NC(=O)[C@@H]1CSCC(=O)CSC[C@H](NC(=O)[C@@H](N)CCC(=O)O)C(=O)N[C@@H](Cc2c[nH]c3ccccc23)C(=O)N[C@@H](CC(C)C)C(=O)N[C@H]2CSCC(=O)CSC[C@H](NC(=O)[C@H](CC(N)=O)NC(=O)[C@H](CCCNC(=N)N)NC(=O)[C@H](Cc3ccc(O)cc3)NC(=O)[C@H](Cc3ccc(O)cc3)NC2=O)C(=O)N[C@@H](CC(N)=O)C(=O)N1)C(N)=O (single isomer, unassigned) [I4 (isomer 3), H-EC(4a)WLC(5a)YYRNC(5a)NC(4a)M-[NH2], reference compound]
SIF (% remaining 4 h) [1]: 0%

Compound: CC[C@H](C)[C@@H]1NC(=O)Cc2ccc(cc2)CNC(=O)CC[C@@H](C(=O)N[C@@H](CCN)C(=O)N[C@@](C)(Cc2cccnc2)C(N)=O)NC(=O)[C@](C)(C(C)C)NC(=O)[C@H](Cc2cn(C)c3ccccc23)NC(=O)[C@H](Cc2ccc(C)cc2)NC(=O)[C@@H]2CCNC(=O)CC[C@H](NC1=O)C(=O)N[C@@H](Cc1c[nH]c3ccccc13)C(=O)N[C@@H](CCC(N)=O)C(=O)N2 [Compound 175, [4-Aminomethyl-phenylacetyl](1c)*IE(2c)WQ[Dab](2c)[F(4-Me)][1-Me-Trp][2-Me-Val]E(1c)[Dab][2-Me-3-(3-Pyridyl)-Ala]-[NH2]] ([X1]IEWQ[Dab][Phe(4-Me)][Trp(1-Me)][αMeV]E[Dab][αMeAla(3-pyridyl)]-NH2; lactam 3-6, N-10)
remaining at 4 h, 10 μM [1]: 93%

Compound: CC(C)C[C@@H]1NC(=O)[C@H](Cc2c[nH]c3ccccc23)NC(=O)[C@H](Cc2c[nH]c3ccccc23)NC(=O)[C@@H]2CSCC(=O)CSC[C@H](NC(=O)[C@H](CO)NC(=O)[C@@H](NC(=O)[C@@H](N)CC(=O)O)CSCC(=O)CSC[C@@H](C(=O)N[C@@H](CCCNC(=N)N)C(N)=O)NC1=O)C(=O)N[C@@H](Cc1c[nH]c3ccccc13)C(=O)N[C@@H](CCC(N)=O)C(=O)N2 (single isomer, unassigned) [I3 (isomer 3), H-DC(1a)SC(2a)WQC(2a)WWLC(1a)R-[NH2], reference compound]
SIF (% remaining 4 h) [1]: 0%

Continued, values first:

remaining at 1 h, 10 μM [1]: 95%
Ki (human IL-23R): 0.439 nM
Compound: CC(C)C[C@]1(C)NC(=O)[C@H](Cc2ccc3ccccc3c2)NC(=O)[C@H](Cc2ccc(OCCN)cc2)NC(=O)[C@@H]2CSCC(=O)CSC[C@H](NC(=O)[C@H](CO)NC(=O)CCCCCNC(=O)CC[C@@H](C(=O)N[C@H](CCCNC(=N)N)C(N)=O)NC1=O)C(=O)N[C@@H](Cc1c[nH]c3ccccc13)C(=O)N[C@@H](CCC(N)=O)C(=O)N2 [Compound 87, [6-Aminohexanoyl](1c)*SC(2a)WQC(2a)[Y(2-aminoethoxy)][2-Nal][2-Me-Leu]E(1c)[{d}R]-[NH2]] ([Ahx]SCWQC[AEF][2Nal][αMeL]E[dR]-NH2; linker 3-6 via CH2COCH2; lactam N-10)

remaining at 1 h, 10 μM [1]: 46%
remaining at 4 h, 10 μM [1]: 4%
Ki (human IL-23R): 0.00783 nM
Compound: CC(C)C[C@]1(C)NC(=O)[C@H](Cc2ccc3ccccc3c2)NC(=O)[C@H](Cc2ccc(OCCN)cc2)NC(=O)[C@@H]2CCC(=O)NCC[C@H](NC(=O)[C@H](CO)NC(=O)Cc3ccc(cc3)CNC(=O)CC[C@@H](C(=O)N[C@@H](CCN)C(=O)N[C@@H](Cc3cccnc3)C(N)=O)NC1=O)C(=O)N[C@@H](Cc1c[nH]c3ccccc13)C(=O)N[C@@H](CCC(N)=O)C(=O)N2 (relative stereo) [Compound 123, [4-Aminomethyl-phenylacetyl](1c)*S[Dab](2c)WQE(2c)[Y(2-aminoethoxy)][2-Nal][2-Me-Leu]E(1c)[Dab][3-(3-Pyridyl)-Ala]-[NH2]]

remaining at 1 h, 10 μM [1]: 70%
Compound: CC(C)C[C@]1(C)NC(=O)[C@H](Cc2ccc3ccccc3c2)NC(=O)[C@H](Cc2c[nH]c3ccccc23)NC(=O)[C@@H]2CSCC(=O)CSC[C@H](NC(=O)[C@H](CO)NC(=O)c3cccc(c3)CNC(=O)CC[C@@H](C(=O)N[C@@H](CCCNC(=N)N)C(N)=O)NC1=O)C(=O)N[C@@H](Cc1c[nH]c3ccccc13)C(=O)N[C@@H](CCC(N)=O)C(=O)N2 [Compound 40, [(3-Aminomethyl)benzoyl](1c)*SC(2a)WQC(2a)W[2-Nal][2-Me-Leu]E(1c)R-[NH2]] ([3Amb]SCWQCW[2Nal][αMeL]ER-NH2; linker 3-6 via CH2COCH2; lactam N-10)

remaining at 4 h, 10 μM [1]: 63%
Compound: CC[C@H](C)[C@@H]1NC(=O)Cc2ccc(cc2)CNC(=O)CC[C@@H](C(=O)N[C@@H](CCN)C(=O)N[C@@](C)(Cc2cccnc2)C(N)=O)NC(=O)[C@](C)(C(C)C)NC(=O)[C@@H](Cc2c[nH]c3cc(F)ccc23)NC(=O)[C@H](Cc2ccc(C)cc2)NC(=O)[C@@H]2CCNC(=O)CC[C@H](NC1=O)C(=O)N[C@@H](Cc1c[nH]c3ccccc13)C(=O)N[C@@H](CCC(N)=O)C(=O)N2 [Compound 177, [4-Aminomethyl-phenylacetyl](1c)*IE(2c)WQ[Dab](2c)[F(4-Me)][{d}6-F-Trp][2-Me-Val]E(1c)[Dab][2-Me-3-(3-Pyridyl)-Ala]-[NH2]] ([X1]IEWQ[Dab][Phe(4-Me)][dTrp(6-F)][αMeV]E[Dab][αMeAla(3-pyridyl)]-NH2; lactam 3-6, N-10)
